Source: US8722649B2, “Alpha-chloro and alpha-bromo phosphonate analogs of lysophosphatidic acid and methods of making and using thereof” (University of Utah Research Foundation, priority 2007, dated 2014)
“Also recorded” adds a separate entry of the source.

Experiments:
[1] = tested on: LPA GPCRs; assay: Ca2+ mobilization assay, overall profile across LPA GPCRs; assay type: cell-based, human; conditions: across LPA1-4
Procedure: After incubating the cells with Fura-2 AM, the cells were rinsed with Krebs buffer and changes in the intracellular Ca^2+ concentration were monitored by determining the ratio of emitted light intensities at 520 nm in response to excitation at 340 and 380 nm using FLEXstation II (Molecular Devices, Sunnyvale, Calif.). Each well was monitored for 80-120 sec. For testing agonist activity of the compounds, the test compounds were added automatically after 15 sec of baseline measurement. To determine antagonist properties, varying concentrations of the compounds were mixed with a constant concentration of LPA and responses were monitored. Each test was performed in quadruplicate. EC50, IC50, and Ki values were calculated by fitting a sigmoid function to data points with the nonlinear curve-fitting feature of KaleidaGraph (Synergy Software, Essex Junction, Vt.).
Receptor activation using Ca^2+ mobilization assay. The assay for mobilization of intracellular Ca^2+ was performed as described. […] Using a FLEXStation (Molecular Devices, Sunnyvale, Calif.), changes in intracellular Ca^2+ concentration were monitored. Ligand-induced changes in fluorescence were monitored for 80-120 seconds. Ca^2+ transients were quantified automatically by calculating the difference between maximum and baseline ratio values for each sample. […] EC50, IC50, and Ki values were calculated as described. […]

[2] = tested on: HCT 116 cells; assay: HCT 116 proliferation (MTS); assay type: cell-based; conditions: 2, 10, 20 μM, 72 h
From the text: Effects of bromo-LPA analogs on HCT 116 proliferation. HCT 116 cells were purchased from the American Type Culture Collection (Manassas, Mass.). Medium and reagents were obtained from the following sources: McCoy's 5a Medium (ATCC, Manassas, Va.); Penicillin-Streptomycin (MP biomedicals, Solon, Ohio); Fetal bovine serum (ATCC, Manassas, Mass.); Accutase (MP biomedicals, Solon, Ohio); MTS (Promega, Madison, Wis.); Matrigel (Becton Dickinson Labware, Cambridge, Mass.); Extracel (Glycosan, Salt Lake City, Utah). Lysophosphatidic acid receptor pan-Antagonist (LPAa)—the pure diastereomers 1a and 1b, and the mixed diastereomers 1 (University of Utah, Salt Lake City, Utah).
HCT 116 cells were maintained in McCoy's 5a medium supplemented with 10% FBS, 100 μg/ml streptomycin, and 100 units/ml penicillin at 37° C. in 95% air, 5% CO2. 4,000HCT-116 cells were seeded in 100 μl media in each well of 96-well flat-bottomed microplates (BD Labware, N.J.). The pure diastereomers 1a and 1b, and the mixed diastereomers 1 were added at various final concentrations (2 μM, 10 μM, 20 μM) to each column. At 72 h, pipet 20 μl MTS (Promega, Madison, Wis.) into each well, and cells were further incubated for 2 h. The absorbance of the samples at 490 nm was measured using a 96-well plate reader (OPTI max, Sunnyvale, Calif.).

[3] = tested on: HCT 116 cells; assay: HCT 116 wound-healing migration assay; assay type: cell-based; conditions: 20 μM; 0, 16, 24 and 48 hours
Procedure: Effects of BrP-LPA analogs on HCT 116 migration. HCT 116 (2×10^5 per well) were plated in a six-well plate. When the cells were 100% confluent, the cells were treated with Mitomycin C (Sigma, MO, USA) 10 μg/ml for 2 hours, and then the monolayer was scratched using a 200 μl pipette tip. Medium and nonadherent cells were aspirated, the adherent cells were washed once, and new medium containing various concentrations of the pure diastereomers 1a and 1b, and the mixed diastereomers 1 (2 μM, 10 μM, 20 μM) was added (FIG. 13). A photograph was taken at the marked field (n=4) at 0, 16, 24 and 48 hours (FIG. 14). Wound closure was expressed as a percentage of the initial wound area, which was quantified using NIH ImageJ software.

[4] = tested on: HCT 116 cells; assay: Hepatic colon cancer tumor growth; assay type: in vivo, nude mice; conditions: 10 mg/kg i.p. twice per week
Procedure: Four-week-old female athymic nude mice (Charles River Laboratories, Wilmington, Mass.) were used for colon cell implantation. All animals were maintained in a sterile environment. Cages, bedding, food, and water were all autoclaved. All animals were maintained on a daily 12-hr light/12-hr dark cycle.
Nude mice were anesthetized by intraperitoneal injection of ketamine (80 mg/kg) and xylazine (10 mg/kg) according to the protocol approved by the University of Utah Institutional Animal Care and Use Committee (IACUC).
After anesthesia induction, the aseptic surgical field was sterilized with iodine and alcohol swabs. HCT 116 cells (1×10^6) in 50 μl of the sECM hydrogel Extracel was directly injected into the livers of nude mice after they had been randomly assigned to one of the groups at the beginning of the experiment (8 mice/group).
The control group received physiological saline i.p. injection twice per week starting at one week after the cell transplantation and ended at two weeks after the treatment. The treatment group received i.p. administration of the pure diastereomers 1b at 10 mg/kg twice per week with the same period of control group.
Mice were observed daily. Animals were euthanized at 3 weeks post-injection in a carbon dioxide chamber. Body weights were measured, and the livers were excised. Liver weights and tumor diameters were subsequently determined. Colon tumors were measured using digital calipers. The volume of the cancer was then calculated according to the formula: Cancer Volume (CV)=d2×D/2, where d and D are the shortest and the longest diameters, respectively. After measurement, the tumor tissue was then harvested and placed in 10% formalin for paraffin embedding in preparation for the subsequent histological analyses.

CCCCCCCCCCCCCCCC(=O)OC[C@@H](O)C[C@@H](Br)P(=O)(O)O [Compound 1a]
overall LPA GPCR ligand profile [1]: pan-antagonist

CCCCCCCCCCCCCCCC(=O)OC[C@@H](O)C[C@H](Br)P(=O)(O)O [Compound 1b]
HCT 116 cell proliferation [2]: highly suppressed; also recorded: dose-dependent inhibition | HCT 116 cell migration [3]: greatest inhibition | hepatic tumor burden (liver weight) [4]: marked reduction of hepatic tumor burden; also recorded: significantly reduced tumor burden | new blood vessels in hepatic colon tumor (H&E) [4]: significantly reduced amounts of new blood vessels | hepatic tumor size / tumor volume in words ([4]; vs untreated control): significantly smaller; also recorded: significant decrease in tumor volume; also recorded: smaller than the untreated control
